Patent publication US11358977B2, “Deuterated pyridone amides and prodrugs thereof as modulators of sodium channels” (VERTEX PHARMACEUTICALS INCORPORATED, priority 2017, dated 2022)
One block for each compound: values may come before it.

What was measured:
human NaV 1.8 = target: T1, human NaV 1.8 (Homo sapiens, UniProt Q9Y5Y9); assay: E-VIPR assay for NaV inhibition; assay type: cell-based; conditions: HEK cells expressing human NaV 1.8, E-VIPR
T1 construct: expressed in transfected cells; host or cells: HEK cells, grown under blasticidin selection; KIR2.1 BacMam virus added before seeding
Description: Sodium ion channels are voltage-dependent proteins that can be activated by inducing membrane voltage changes by applying electric fields. […] The instrument comprises a microtiter plate handler, an optical system for exciting the coumarin dye while simultaneously recording the coumarin and oxonol emissions, a waveform generator, a current- or voltage-controlled amplifier, and parallel electrode pairs that are inserted into assay plate wells. Under integrated computer control, this instrument passes user-programmed electrical stimulus protocols to cells within the wells of the microtiter plate.
The solution was made by adding 10% Pluronic F127 stock equal to combined volumes of CC2-DMPE and DiSBAC6(3).
Then 25 μL per well from compound plate was transferred to each cell plate.
A pre-stimulus recording was performed for 0.5 seconds to obtain the un-stimulated intensities baseline. The stimulatory waveform was followed by 0.5 seconds of post-stimulation recording to examine the relaxation to the resting state.

[1] = In vitro hepatocyte assay: prodrug conversion to parent compound; assay type: in vitro ADME, human; conditions: for half-life at 0.25 µM: cryopreserved human hepatocytes in suspension, cryopreserved human hepatocytes 0.625 million cells/mL, 37° C., Compounds 20 and 13 co-incubated, read-out: t1/2 in human hepatocytes; for conversion of prodrug to parent compound / % remaining: human hepatocytes; for conversion of prodrug to parent compound: LC-MS/MS, Compound 20 to Compound 10, Compound 13 to Compound 7
Procedure: Materials. Cryopreserved human hepatocytes and Cryopreserved Hepatocytes Recovery Medium (CHRM™) were purchased from Life Technologies (Carlsbad, Calif.). Gibco™ Leibovitz's L-15 Medium was purchased from Fisher Scientific (Waltham, Mass.).
Methods. 10 mM stock solutions containing Compound 20 and Compound 13 were prepared in DMSO. Equal volumes of the two 10 mM stock solutions were mixed to form a combination stock solution containing Compound 20 and Compound 13 in concentrations of 5 mM each. The 5 mM combination stock solution was diluted to a concentration of 50 μM of each compound in DMSO (“50 μM combination stock”). Cryopreserved human hepatocytes were thawed in CHRM™ medium and prepared as a suspension in incubation medium (L-15 Medium with supplements containing glucose, HEPES buffer and NaHCO3), with the final cell concentration of 0.625 million cells/mL. In a 48 well plate, 1 μL of the 50 μM combination stock and then 199 μL of hepatocyte suspension (0.625 million cells/mL) were added to each well. The plate was covered and incubated at 37° C. in an incubator with gentle shaking (50 rpm). The reactions were quenched at 0, 0.25, 0.5, 1 and 2 hours by adding 200 μL of ice-cold quench solution (ACN:MeOH:0.1% aqueous formic acid, 2:2:1) containing internal standard (n=3 per time point). […] LC-MS/MS analysis was conducted using a Phenomenex Luna C8 column (3 micron, 2 mm diameter×30 mm long, at room temperature) eluted with a gradient consisting of mobile phases of 0.1% formic acid in water and 0.1% formic acid in acetonitrile at a total flow rate of 0.6 mL/min and a total run time of 4.5 minutes. The analytes were detected by MS/MS with Electrospray Ionization (ESI) in the mode of multiple reaction monitoring (MRM). The injection volume was 10 μL.

[2] = In vitro microsomal metabolic stability assay, monkey; assay type: in vitro ADME; conditions: monkey liver microsomes 0.25 mg/mL, 1.0 μM compound, NADPH
Procedure: (§1) Materials. Rat, Dog, Monkey and Human liver microsomes (20 mg/mL) were obtained from Xenotech, LLC (Lenexa, Kans.). P-nicotinamide adenine dinucleotide phosphate, reduced form (NADPH), magnesium chloride (MgCl2), and dimethyl sulfoxide (DMSO) were purchased from Sigma-Aldrich.
(§2) Methods. […] The 10 mM stock solutions were diluted to 100 μM in DMSO. In each cluster polypropylene tube, 190.7 μL of 100 mM phosphate buffer, pH 7.4 was added, then 2.5 μL of liver mocrosomes (20 mg/mL, rat, dog, monkey or human) was added, then a 2 μL aliquot of the 100 μM test compound was added, and the mixture was pre-warmed for 10 minutes. Reactions were initiated by addition of 4.8 μL of pre-warmed NADPH solution (100 mM in 100 mM phosphate buffer). The final reaction volume was 200 μL and contained 0.25 mg/mL rat, dog, monkey or human liver microsomes, 1.0 μM test compound, and 2.4 mM NADPH in 0.1 M potassium phosphate buffer, pH 7.4. The reaction mixtures were incubated at 37° C., and the reactions were quenched at 0, 15, 30 and 60 minutes by adding 200 μL of ice-cold quench solution (ACN:MeOH:0.1% formic acid in water 2:2:1) containing internal standard, n=3 per time point. The tubes were centrifuged and supernatants were analyzed for amounts of the test compound remaining by LC-MS/MS. The HPLC system included a Phenomenex Luna C8 column, 3 micron, 2 mm diameter×30 mm long eluted with a gradient mobile phase consisting of 0.1% formic acid in water or in acetonitrile. The analytes were detected by MS/MS with Electrospray Ionization (ESI) in the mode of multiple reaction monitoring (MRM). The injection volume was 10 μL.

[3] = In vivo pharmacokinetic study, rat IV; set-up: species or system Male Sprague Dawley rats; conditions: male, Sprague Dawley, plasma, rat IV bolus, cassette, nominal 0.5 mg/kg
Procedure: General Procedures. Concentrations of the test compounds in plasma were determined using a high performance liquid chromatography/tandem mass spectrometry (HPLC/MS/MS) method. The test compounds along with the internal standard (IS) were extracted from plasma (20 μL) by direct protein precipitation with acetonitrile (1:25 ratio of plasma/acetonitrile). After centrifugation, the supernatant extract (10 μL) was injected onto the LC/MS/MS system. The HPLC system included a Phenomenex Luna C8 column, 3 micron, 2 mm diameter×30 mm long eluted with a gradient mobile phase consisting of 0.1% formic acid in water or in acetonitrile. The analytes were detected by MS/MS with Electrospray Ionization (ESI) in the mode of multiple reaction monitoring (MRM). The lower limit of quantitation (LLOQ) was 1.00 ng/mL. The linear range of the assay was from 1 to 3000 ng/mL. The assay accuracy was within 20% of the nominal values.
Plasma concentration-time profiles of the test compounds were analyzed by noncompartmental pharmacokinetic methods using PK module in Watson, Version 7.4.2 (Thermo Scientific). Pharmacokinetic parameters including AUCa11, AUC0-∞, C0, Cl, Vss and t1/2 were determined.
Descriptive statistical data of plasma concentrations and pharmacokinetic parameter estimates were calculated, including the mean, standard deviation (SD), and coefficient of variation (% CV) using Microsoft Excel 2010.
Rat IV Study. Compounds 7 and 10 were administered simultaneously in a single intravenous bolus to Male Sprague Dawley rats (n=3) via jugular cannula. The nominal dose of each compound was 0.5 mg/kg. The cassette dosing solution was formulated in D5W with additives Animals had free access to food and water before and after dosing. Blood samples (approximately 0.25 mL each) were collected via a carotid artery catheter prior to dosing and at 0 (predose), 5 min, 10 min, 0.25, 0.5, 1, 2, 4, 8, 12, 24 hours post dose. Each blood sample was collected into a tube that was kept on wet ice and contained potassium EDTA as the anticoagulant. Plasma was separated and stored at approximately −70° C. until analysis.
Plasma samples and dosing solutions were analyzed using a liquid chromatography/tandem mass spectrometry (LC/MS/MS) method to determine the concentrations of Compounds 7 and 10 with a lower limit of quantitation (LLOQ) of 1.00 ng/mL. The average plasma concentrations of Compounds 7 and 10 are plotted in FIG. 5 and are also presented in tabular form in Table 5.
Plasma concentration vs. time data were subjected to noncompartmental pharmacokinetic (PK) analysis. To determined the measured dose of each compound, the dose formulation (50 μL) was aliquoted into a cluster tube at the time of dosing. Then 450 μL of DMSO was added to the tube to dilute it 10×. Then the diluted dosing solution was spiked into rat blank plasma with 100× dilution. The resulting plasma sample was analyzed along with the plasma samples collected from rats that were dosed with the compounds, using the same LC/MS/MS method.

[4] = In vitro microsomal metabolic stability assay, human; assay type: in vitro ADME; conditions: human liver microsomes 0.25 mg/mL, 1.0 μM compound, NADPH
Procedure: as §1, §2

[5] = In vitro microsomal metabolic stability assay, dog; assay type: in vitro ADME; conditions: dog liver microsomes 0.25 mg/mL, 1.0 μM compound, NADPH
Procedure: as §1, §2

[6] = In vitro microsomal metabolic stability assay, rat; assay type: in vitro ADME; conditions: rat liver microsomes 0.25 mg/mL, 1.0 μM compound, NADPH
Procedure: as §1, §2

T1 sequence (Q9Y5Y9 whole entry): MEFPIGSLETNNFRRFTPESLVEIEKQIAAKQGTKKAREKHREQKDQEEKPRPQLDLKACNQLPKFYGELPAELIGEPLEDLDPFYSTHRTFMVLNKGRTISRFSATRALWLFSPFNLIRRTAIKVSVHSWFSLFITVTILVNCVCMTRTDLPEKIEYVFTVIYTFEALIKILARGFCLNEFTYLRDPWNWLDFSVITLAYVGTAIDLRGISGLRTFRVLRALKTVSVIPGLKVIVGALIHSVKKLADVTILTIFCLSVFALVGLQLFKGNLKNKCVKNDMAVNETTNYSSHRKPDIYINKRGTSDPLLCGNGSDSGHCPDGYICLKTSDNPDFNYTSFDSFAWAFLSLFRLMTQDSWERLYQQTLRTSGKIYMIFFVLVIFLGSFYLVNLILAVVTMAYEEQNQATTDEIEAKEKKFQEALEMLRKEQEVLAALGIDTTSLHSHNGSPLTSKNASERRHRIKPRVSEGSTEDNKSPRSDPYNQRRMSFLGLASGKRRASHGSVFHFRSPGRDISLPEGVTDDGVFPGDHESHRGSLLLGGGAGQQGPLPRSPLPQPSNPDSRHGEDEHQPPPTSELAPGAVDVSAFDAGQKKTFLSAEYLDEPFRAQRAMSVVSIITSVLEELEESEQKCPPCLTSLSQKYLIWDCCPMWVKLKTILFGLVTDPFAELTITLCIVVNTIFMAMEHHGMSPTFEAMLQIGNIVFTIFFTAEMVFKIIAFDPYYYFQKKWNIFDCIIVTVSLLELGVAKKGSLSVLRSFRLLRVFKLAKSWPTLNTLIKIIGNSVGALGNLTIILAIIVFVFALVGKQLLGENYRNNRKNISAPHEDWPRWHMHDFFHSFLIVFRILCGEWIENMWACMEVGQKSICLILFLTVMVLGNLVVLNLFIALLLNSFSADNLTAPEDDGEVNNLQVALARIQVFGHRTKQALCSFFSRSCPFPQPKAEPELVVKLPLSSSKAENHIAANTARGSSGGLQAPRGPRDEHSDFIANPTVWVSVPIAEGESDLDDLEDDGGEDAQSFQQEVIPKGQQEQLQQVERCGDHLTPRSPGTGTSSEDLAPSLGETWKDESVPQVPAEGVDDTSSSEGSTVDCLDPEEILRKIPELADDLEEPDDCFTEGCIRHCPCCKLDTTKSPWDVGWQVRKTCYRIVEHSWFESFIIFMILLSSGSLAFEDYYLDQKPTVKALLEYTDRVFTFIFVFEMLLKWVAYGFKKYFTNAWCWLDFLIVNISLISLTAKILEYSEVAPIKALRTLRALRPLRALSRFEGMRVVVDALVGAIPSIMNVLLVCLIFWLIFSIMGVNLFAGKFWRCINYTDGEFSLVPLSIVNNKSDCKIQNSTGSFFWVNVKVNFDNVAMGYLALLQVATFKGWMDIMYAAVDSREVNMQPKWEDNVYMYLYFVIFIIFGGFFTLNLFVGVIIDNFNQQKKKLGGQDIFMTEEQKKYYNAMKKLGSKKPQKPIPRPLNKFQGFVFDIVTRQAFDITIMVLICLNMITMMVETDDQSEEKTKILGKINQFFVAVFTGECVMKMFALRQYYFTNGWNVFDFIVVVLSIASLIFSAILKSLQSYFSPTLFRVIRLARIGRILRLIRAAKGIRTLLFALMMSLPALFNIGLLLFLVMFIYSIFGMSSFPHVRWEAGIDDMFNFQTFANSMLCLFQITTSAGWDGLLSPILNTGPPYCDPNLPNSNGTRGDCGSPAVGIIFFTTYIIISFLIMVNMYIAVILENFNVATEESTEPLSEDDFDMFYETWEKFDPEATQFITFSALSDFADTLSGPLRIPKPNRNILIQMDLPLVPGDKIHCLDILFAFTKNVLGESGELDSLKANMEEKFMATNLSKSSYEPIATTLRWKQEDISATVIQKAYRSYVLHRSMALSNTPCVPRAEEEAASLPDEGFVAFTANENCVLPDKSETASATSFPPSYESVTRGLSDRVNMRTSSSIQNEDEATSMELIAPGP

IC50 (human NaV 1.8; 11 point dose response, top dose 3 μM, read-out: Nav1.8 IC50): 1200 nM
Nav1.8 Max % Activity (human NaV 1.8; normalised to positive control 25 μM): 99%
half-life at 0.25 µM [1]: < 0.5 h
conversion of prodrug to parent compound [1]: fast conversion
% remaining ([1]; time 0 hr): 100%
% remaining ([1]; time 0.25 hr): 73.8%
% remaining ([1]; time 0.5 hr): 33.2%
% remaining ([1]; time 1 hr): 11.1%
% remaining ([1]; time 2 hr): 11.8%
Structure (SMILES): [2H]C([2H])([2H])c1cc(F)ccc1Oc1cc(C(F)(F)F)ccc1C(=O)Nc1ccn(COP(=O)(O)O)c(=O)c1 [Compound 13, (4-(2-(4-fluoro-2-(methyl-d3)phenoxy)-4-(trifluoromethyl)benzamido)-2-oxopyridin-1(2H)-yl)methyl dihydrogen phosphate]

half-life at 0.25 µM [1]: < 0.5 h
conversion of prodrug to parent compound [1]: fast conversion
% remaining ([1]; time 0 hr): 100%
% remaining ([1]; time 0.25 hr): 75.1%
% remaining ([1]; time 0.5 hr): 32.7%
% remaining ([1]; time 1 hr): 11.2%
% remaining ([1]; time 2 hr): 11.6%
Structure (SMILES): Cc1cc(F)ccc1Oc1cc(C(F)(F)F)ccc1C(=O)Nc1ccn(COP(=O)(O)O)c(=O)c1 [Compound 20, (4-(2-(4-fluoro-2-methylphenoxy)-4-(trifluoromethyl)benzamido)-2-oxopyridin-1(2H)-yl)methyl dihydrogen phosphate, reference compound]

% remaining ([2]; 0 min): 100%
% remaining ([2]; 15 min): 96.4%
% remaining ([2]; 30 min): 92.4%
% remaining ([2]; 60 min): 91.4%
concentration at 0.083 h ([3]; 0.083 hours): 391 ng/mL
concentration at 0.167 h ([3]; 0.167 hours): 349 ng/mL
concentration at 0.25 h ([3]; 0.25 hours): 316 ng/mL
concentration at 0.5 h ([3]; 0.5 hours): 239 ng/mL
concentration at 1 h ([3]; 1 hour): 174 ng/mL
concentration at 2 h ([3]; 2 hours): 111 ng/mL
concentration at 4 h ([3]; 4 hours): 51.6 ng/mL
concentration at 8 h ([3]; 8 hours): 14.3 ng/mL
concentration at 12 h ([3]; 12 hours): 4.27 ng/mL
AUC ([3]; noncompartmental analysis): 415 ng·h/mL
AUC(0-inf) ([3]; noncompartmental analysis): 422 ng·h/mL
C0 ([3]; noncompartmental analysis): 245 ng/mL
clearance ([3]; noncompartmental analysis): 22.1 mL/min/kg
half-life ([3]; noncompartmental analysis): 2.2 h
Vd ([3]; noncompartmental analysis, read-out: Vss): 3.4 L/kg
% remaining ([4]; 0 min): 100%
% remaining ([4]; 15 min): 110%
% remaining ([4]; 30 min): 105%
% remaining ([4]; 60 min): 106%
% remaining ([5]; 0 min): 100%
% remaining ([5]; 15 min): 85.9%
% remaining ([5]; 30 min): 85.4%
% remaining ([5]; 60 min): 85.7%
% remaining ([6]; 0 min): 100%
% remaining ([6]; 15 min): 108%
% remaining ([6]; 30 min): 102%
% remaining ([6]; 60 min): 87.4%
Structure (SMILES): Cc1cc(F)ccc1Oc1cc(C(F)(F)F)ccc1C(=O)Nc1cc[nH]c(=O)c1 [Compound 10, 2-(4-fluoro-2-methylphenoxy)-N-(2-oxo-1,2-dihydropyridin-4-yl)-4-(trifluoromethyl)benzamide, reference compound]
